Results: US20250388576A1, “PYRIDONOPYRIMIDINE DERIVATIVE AS RSK INHIBITOR AND USE THEREOF” (EAST CHINA NORMAL UNIVERSITY, priority 2022, published 2025)

Experiments:
renal cancer cells ACHN = test: Anti-cell proliferation activity (CCK8), ACHN; format: cell-based; conditions: Homo sapiens, 72 hours
[1] = tested on: esophageal squamous cell carcinoma cells TE10; test: Anti-cell proliferation activity (CCK8), TE10; format: cell-based; conditions: Homo sapiens, TE-10, 72 hours
[2] = tested on: esophageal squamous cell carcinoma cells KYSE510; test: Anti-cell proliferation activity (CCK8), KYSE510; format: cell-based; conditions: Homo sapiens, KYSE-510, 72 hours
[3] = tested on: esophageal squamous cell carcinoma cells KYSE150; test: Anti-cell proliferation activity (CCK8), KYSE150; format: cell-based; conditions: Homo sapiens, KYSE-150, 72 hours
RSK4 kinase = RSK4 kinase (Homo sapiens (Human), UniProt Q9UK32); test: In vitro enzyme activity assay (Kinase-Glo), RSK4; format: biochemical; conditions: 10 μM ATP, 30° C., 40 minutes
Sequence of RSK4 kinase (Q9UK32 whole entry): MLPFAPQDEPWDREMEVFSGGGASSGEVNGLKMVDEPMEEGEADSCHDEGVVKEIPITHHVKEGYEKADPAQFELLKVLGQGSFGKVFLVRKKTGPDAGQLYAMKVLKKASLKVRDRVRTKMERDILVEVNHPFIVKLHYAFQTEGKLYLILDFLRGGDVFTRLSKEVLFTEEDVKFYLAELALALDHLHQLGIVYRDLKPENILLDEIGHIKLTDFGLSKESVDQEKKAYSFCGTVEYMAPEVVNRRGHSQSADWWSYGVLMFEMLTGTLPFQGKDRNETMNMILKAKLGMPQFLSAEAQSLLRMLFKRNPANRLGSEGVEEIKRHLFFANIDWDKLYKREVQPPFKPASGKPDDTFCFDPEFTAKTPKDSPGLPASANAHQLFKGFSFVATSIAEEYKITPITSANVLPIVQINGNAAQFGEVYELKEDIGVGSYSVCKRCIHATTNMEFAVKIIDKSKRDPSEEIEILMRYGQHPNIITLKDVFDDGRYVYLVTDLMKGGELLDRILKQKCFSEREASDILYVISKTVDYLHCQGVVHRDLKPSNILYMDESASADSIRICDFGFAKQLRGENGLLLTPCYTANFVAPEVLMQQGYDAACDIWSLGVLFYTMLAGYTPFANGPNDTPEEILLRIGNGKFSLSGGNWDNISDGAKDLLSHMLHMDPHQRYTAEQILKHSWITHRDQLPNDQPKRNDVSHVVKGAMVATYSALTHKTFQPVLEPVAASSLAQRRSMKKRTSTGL

SMILES | IC50 (RSK4 kinase) | other results
CC(C)CCN1c2nc(Nc3cc(F)c(O)c(F)c3)ncc2N(C)C(=O)C1C (stereo not drawn) [BI-D1870, reference compound] | – | IC50 (renal cancer cells ACHN): > 10000 nM; IC50 [1]: 3860 ± 760 nM; IC50 [2]: 11700 ± 2580 nM; IC50 [3]: 20200 ± 1560 nM
CC(=O)N(c1cc(F)c(O)c(F)c1)c1ncc2c(C)cc(=O)n(C3CCCC3)c2n1 [Compound 002, N-(8-Cyclopentyl-5-methyl-7-oxo-7,8-dihydropyrido[2,3-d]pyrimidin-2-yl)-N-(3,5-difluoro-4-hydroxyphenyl)acetamide] | 139 ± 19 nM | –
Cc1cc(=O)n(C2CCCC2)c2nc(Nc3cc(F)c(O)c(F)c3)ncc12 [Compound 003, 8-Cyclopentyl-2-((3,5-difluoro-4-hydroxyphenyl)amino)-5-methylpyrido[2,3-d]pyrimidin-7(8H)-one] | 12 ± 3 nM | IC50 (renal cancer cells ACHN): 3100 ± 110 nM; IC50 [2]: 3130 ± 1160 nM; IC50 [3]: 4080 ± 1120 nM
Cc1cc(=O)n(C2CCCC2)c2nc(Nc3ccc4[nH]nnc4c3)ncc12 [Compound 004, 2-((1H-benzo[d][1,2,3]triazol-5-yl)amino)-8-cyclopentyl-5-methylpyrido[2,3-d]pyrimidin-7(8H)-one] | 3020 ± 673 nM | –
Cc1cc(=O)n(C2CCCC2)c2nc(Nc3ccc4c(c3)CC(=O)N4)ncc12 [Compound 007, 8-Cyclopentyl-5-methyl-2-((2-oxoindolin-5-yl)amino)pyrido[2,3-d]pyrimidin-7(8H)-one] | 17 ± 6 nM | IC50 (renal cancer cells ACHN): 1940 ± 70 nM; IC50 [2]: 6150 ± 270 nM; IC50 [3]: 4650 ± 2110 nM
Cc1cc(=O)n(C2CCCC2)c2nc(Nc3ccc4[nH]c(=O)oc4c3)ncc12 [Compound 008, 6-((8-Cyclopentyl-5-methyl-7-oxo-7,8-dihydropyrido[2,3-d]pyrimidin-2-yl)amino)benzo[d]oxazol-2(3H)-one] | 10800 ± 2030 nM | –
Cc1cc(=O)n(C2CCCC2)c2nc(Nc3cc(F)c4[nH]ncc4c3)ncc12 [Compound 009, 8-Cyclopentyl-2-((7-fluoro-1H-indazol-5-yl)amino)-5-methylpyrido[2,3-d]pyrimidin-7(8H)-one] | 39 ± 8 nM | –
Cc1cc(=O)n(C2CCCC2)c2nc(Nc3ccc(F)c4[nH]ncc34)ncc12 [Compound 010] | 180 ± 16 nM | –
Cc1c(Br)c(=O)n(C2CCCC2)c2nc(Nc3ccc4[nH]ncc4c3)ncc12 [Compound 011, 2-((1H-indazol-5-yl)amino)-6-bromo-8-cyclopentyl-5-methylpyrido[2,3-d]pyrimidin-7(8H)-one] | 44 ± 7 nM | –
Cc1cc(=O)n(C2CCCC2)c2nc(Nc3ccc4[nH]nc(F)c4c3)ncc12 [Compound 012, 8-Cyclopentyl-2-[(3-fluoro-1H-indazol-5-yl)amino]-5-methylpyrido[2,3-d]pyrimidin-7(8H)-one] | 280 ± 54 nM | –
Cc1cc(=O)n(C2CCCC2)c2nc(Nc3cnc4[nH]ncc4c3)ncc12 [Compound 013, 2-((1H-pyrazolo[3,4-b]pyridin-5-yl)amino)-8-cyclopentyl-5-methylpyrido[2,3-d]pyrimidin-7(8H)-one] | 39 ± 4 nM | –
Cc1c(Br)c(=O)n(C2CCCC2)c2nc(Nc3ccc4c(c3)CC(=O)N4)ncc12 [Compound 014, 6-Bromo-8-cyclopentyl-5-methyl-2-(2-oxoindolin-5-ylamino)pyrido[2,3-d]pyrimidin-7(8H)-one] | 214 ± 20 nM | –
Cc1cc(=O)n(C2CCC(F)(F)C2)c2nc(Nc3ccc4c(c3)CC(=O)N4)ncc12 (stereo not drawn) [Compound 015, 8-(3,3-Difluorocyclopentyl)-5-methyl-2-((2-oxoindolin-5-yl)amino)pyrido[2,3-d]pyrimidin-7(8H)-one] | 46 ± 4 nM | –

The next lines start with results.

IC50 (RSK4 kinase) | SMILES | other results
13 ± 3 nM | Cc1cc(=O)n(C2CCC(F)(F)C2)c2nc(Nc3cc(F)c4[nH]ncc4c3)ncc12 (stereo not drawn) [Compound 016, 8-(3,3-Difluorocyclopentyl)-2-((7-fluoro-1H-indazol-5-yl)amino)-5-methylpyrido[2,3-d]pyrimidin-7(8H)-one] | IC50 (renal cancer cells ACHN): 870 ± 370 nM; IC50 [1]: 1700 ± 1430 nM
12 ± 2 nM | Cc1cc(=O)n(C2CCC(F)(F)C2)c2nc(Nc3cnc4[nH]ncc4c3)ncc12 (stereo not drawn) [Compound 017, 2-((1H-pyrazolo[3,4-b]pyridin-5-yl)amino)-8-(3,3-difluorocyclopentyl)-5-methylpyrido[2,3-d]pyrimidin-7(8H)-one] | –
30 ± 12 nM | Cc1cc(=O)n(C2CCC(O)C2)c2nc(Nc3ccc4[nH]ncc4c3)ncc12 (stereo not drawn) [Compound 018, 2-((1H-indazol-5-yl)amino)-8-(3-hydroxycyclopentyl)-5-methylpyrido[2,3-d]pyrimidin-7(8H)-one] | –
86 ± 41 nM | Cc1cc(=O)n(C2CCCCC2)c2nc(Nc3ccc4[nH]ncc4c3)ncc12 [Compound 019, 2-((1H-indazol-5-yl)amino)-5-methyl-8-(cyclohexyl)pyrido[2,3-d]pyrimidin-7(8H)-one] | –
201 ± 77 nM | Cc1cc(=O)n(C2CCCCCC2)c2nc(Nc3ccc4[nH]ncc4c3)ncc12 [Compound 020, 2-((1H-indazol-5-yl)amino)-5-methyl-8-(cycloheptyl)pyrido[2,3-d]pyrimidin-7(8H)-one] | –
392 ± 162 nM | Cc1cc(=O)n(C2CCOC2)c2nc(Nc3ccc4[nH]ncc4c3)ncc12 (stereo not drawn) [Compound 021, 2-((1H-indazol-5-yl)amino)-5-methyl-8-(tetrahydrofuran-3-yl)pyrido[2,3-d]pyrimidin-7(8H)-one] | –
